Series [1] is described as follows: Absorption/fluorescence spectroscopy and quantum yield under simulated physiological conditions (10% DMSO in PBS). In kind it is physicochemical. Conditions: excitation at 330 nm, PBS buffer containing 10% DMSO, pH 7.4, 37° C.; for quantum yield Φf: quinine sulfate standard. The protocol:
All spectroscopic measurements of Compound 1 and the triazole products 1-A and 1-B were performed in a mixture of 10% DMSO in PBS buffer (FIG. 11). UV-vis spectra and fluorescence spectra were recorded on a Molecular Devices Spectramax M5 spectrometer. For each experiment, the absorbance spectra were measured within an absorbance range of 0.07 to 0.7 (l=[…]). Quantum yields were determined from the slope of the integrated fluorescence emission between 360 and 550 nm (excitation at 330 nm) versus absorbance using quinine sulfate (Φf=0.54±0.0 3)[^S3] as fluorescence standard. The quantum yield was calculated as an average of 4 points according to the following equation: Φsample=Φstandard(Astandard/Asample)(Fsample/Fstandard)(nsample/nstandard)^2 where “Φ” is the quantum yield, “A” is the absorbance at the excitation frequency, “F” is the area under the emission curve, and “n” is the refractive index of the solvent.
Formation of triazoles 1-A and 1-B were accompanied by a significant increase in fluorescence intensity with a large Stokes shift into a standard range for coumarin emission (FIG. 8a).

Series [2] in a line: SPAAC kinetics with benzyl azide monitored by 1H-NMR. Conditions: CD3CN, 25° C. The protocol: The cycloaddition of compound 1 with benzyl azide was a second-order reaction. […] The second-order rate constant (k) was determined to be 0.015 M^−1s^−1 at 25° C. […] (Agard, et al., J. Am. Chem. Soc. 2004, 126, 15046; Ning, et al., Angew. Chem. Int. Ed. 2008, 47, 2253).
(§1) Experiment I: Compound 1 and benzyl azide were predissolved in CD3CN, and then mixed at equimolar concentration of 20 mM. The reaction was monitored by ^1H-NMR analysis over a period of 1 h. The concentration of each component was determined, based on the concentration of initial compound 1, by integration at multiple chemical shifts in the ^1H-NMR spectrum. By plotting 1/[1](M^−1) vs. time (sec), a second order rate constant in unit of M^−1s^−1 was determined using linear regression analysis. This procedure was repeated 3 times with a concentrated of 20 mM to afford a rate constant of 0.012 M^−1s^−1 at 25° C. (FIG. 4B).

Series [3] can be described thus: Photophysical properties of Compound 1 and its benzyl azide triazole regioisomers 3a/3b. In kind it is physicochemical. Conditions: for fluorescence emission λmax: upon irradiation; for extinction coefficient relative to Compound 1: at λmax 330 nm. The source says:
In one embodiment, Compound 1 reacted with benzyl azide in ethanol/water (1:1) in the absence of copper(I) catalyst to afford the cycloaddition product as a mixture of two triazole reigoisomers 3a and 3b. These two trizaole isomers were separated, and their photophysical properties were investigated, respectively. […] The quantum yields of triazole compounds 3a (Φf=0.23) and 3b (Φf=0.22) were 20-fold higher than Compound 1 (Φf=0.011).

In another series the test system is CL1-5 cells. The series can be described thus: Fluorescence labeling of azido-glycoconjugates in live cells (time-lapse and confocal microscopy). The format is cell-based. The protocol: To observe the fluorescence labeled azido-glycoconjugates in cells, CL1-5 cells (a lung cancer cell line) were seeded on chamber slide (2.5×10^4 cells/0.5 mL per wells) and incubated in culture medium (RPMI-1640 supplemented with 10% FBS, 100 U/mL penicillin, 100 μg/mL streptomycin, 1 mM L-glutamine and 1 mM sodium pyruvate) with either 200 μM control sugar (peracetylated N-acetylmannosamine, Ac4ManNAc) or azido-sugar (peracetylated azido-N-acetylmannosamine, Ac4ManNAz) for 3 days.
For Time-lapse imaging of live cells, experiments were carried out using a confocal microscope (TCS-SP5-MP-SMD, Leica) equipped with an incubator to keep the cells in culture conditions. Prewashed cells were incubated with 100 μM compound 1 in PBS buffer with 10% DMSO and images of cell were acquired at 450 nm emission and in 5-min intervals.
For comparing the localization of azido-glycans, probe-labeled cells were washed with PBS, fixed with 3% paraformaldehyde in PBS at room temperature for 20 min, permeablized with 0.2% Triton X-100 in PBS at room temperature for 20 min, and blocked with 3% bovine serum albumin in PBS at room temperature for 30 min. Cells were stained with fluorescein conjugated WGA lectin for Golgi, and propidium iodide (PI) for nucleus (FIG. 12).
Performance of Compound 1 in live cell imaging was investigated. Highly invasive lung cancer cells, CL1-5, were cultured in the presence of peracetylated azido-N-acetylmannosamine (Ac4ManNAz, 200 μM) for 3 days to metabolically produce the azido-sialic acid expressed cells. As a negative control, CL1-5 cells were grown in the presence of peracetylated N-acetylmannosamine (Ac4ManNAc, 200 μM). A time course experiment was conducted by treating 100 μM of Compound 1 (once) and conducted by exposing the cells at 5-min intervals under no-wash and no-fixation conditions (FIG. 8 and FIG. 12). […] Furthermore, the localization of azido-containing glycoconjugates in living cells was visualized by confocal microscopy. The cells labeled by Compound 1 were subsequently stained with fluorescein-conjugated WGA lectin (a Golgi marker) and propidium iodide (PI, a nucleus marker).

Series [4] can be described thus: SPAAC kinetics with N-azidoacetylmannosamine monitored by 1H-NMR. Conditions: CD3OD/D2O (5:1, v/v), equimolar 20 mM, 25° C. The procedure: as §1, with “II:” for “I:”, “N-azidoacetylmannosamine” for “benzyl azide”, “CD3OD/D2O (5:1, v/v),” for “CD3CN,”, “0.010” for “0.012”, “11).” for “4B).”
A short description of series [5]: Time course of ligation with ManNAz by fluorescence spectroscopy. Conditions: emission 435 nm, excitation 330 nm; 10% DMSO in PBS, 37° C. The protocol: To probe the SPAAC reaction under the conditions that would be more typical for biomolecule labeling, the fluorescence response and time course for the reaction of Compound 1 with N-azidoacetylmannosamine (ManNAz) were investigated.
A solution of Compound 1 ([…]) and N-azidoacetylmannosamine (15 μmol) in a mixture of 10% DMSO in PBS buffer (2.5 mL) was incubated at 37° C. The fluorescence emission intensity at 435 nm upon excitation at 330 nm was monitored in 5 min intervals. For each point the fluorescence intensity was measured over a period of 5 sec and averaged over a total of 3 points. In a control experiment the same conditions were used except that N-acetylmannosamine (15 μmol) was added to the solution.

A short description of series [6]: Photophysical properties of alkynyl coumarin-indolium compound C and its CuAAC triazole product 18. The format is physicochemical. Conditions: 18: in aqueous solution; for extinction coefficient ε: at λmax 500 nm.

As to `O=c1ccc2cc3c(cc2o1)C#CCCCC3` [Compound 1, 10,11-Dehydro-6,7,8,9-tetrahydro-cycloocta[g]chromen-2-one], in series [1], the fluorescence emission band was 405 nm and the “quantum yield Φf” value is listed as 0.011. Besides, the “second order rate constant” value in series [2] (benzyl azide, equimolar 20 mM, repeated 3 times) turned out to be 0.012 M⁻¹ s⁻¹. Further, the “second-order rate constant (k)” value in series [2] (cycloaddition with benzyl azide, 19 mM) came to 0.015 M⁻¹ s⁻¹. In series [3], the “absorption band λmax” value came to 330 nm, the “quantum yield Φf” value was 0.011 and the “fluorescence emission λmax” value was 400 nm. The “fluorescence of Ac4ManNAz treated cells” value in the series on CL1-5 cells (100 μM probe, 5-min intervals, no-wash, no-fixation) is listed as “time-dependent increase of fluorescence intensity”. In addition, in the series with CL1-5 cells (100 μM probe, CL1-5 cells grown with 200 μM Ac4ManNAc), the “fluorescence of control cells (background labeling)” value was “almost no fluorescence staining”. Also, the “time until cell labeling complete” value in the series on CL1-5 cells (100 μM probe, CL1-5 cells pre-treated with 200 μM Ac4ManNAz for 3 days, no-wash, no-fixation) came to 1.5 h. In the series on CL1-5 cells (confocal microscopy, co-staining with fluorescein-WGA lectin (Golgi) and propidium iodide (nucleus)), the “localization of probe-labeled sialylated glycans” value is on record as “partially co-localized with Golgi apparatus staining, but not with nucleus staining”. In addition, in series [4], the “second order rate constant” value amounted to 0.010 M⁻¹ s⁻¹. Further, the “time until fluorescence intensity reached a plateau” value in series [5] is recorded as “less than 1 h”.

Regarding `O=c1ccc2cc3c(cc2o1)-c1nnn(Cc2ccccc2)c1CCCC3` [Compound 1-A, 10-Benzyl-6,7,8,9-tetrahydro-cyclooctatriazolo[5,4-g]chromen-2 (2H)-one], in series [1], the fluorescence emission band is given as 435 nm and the “quantum yield Φf” value is on record as 0.23.

Consider `O=C(Cn1nnc2c1CCCCc1cc3ccc(=O)oc3cc1-2)NC1C(O)OC(CO)[C@@H](O)C1O` (stereo partly drawn) [Compound 1-B, N-[2-(11-Oxo-4,6,7,11-tetrahydrochromeno[7′,6′:3,4]cycloocta[1,2-d][1,2,3]triazol-3 (5H)-yl)]acetamido-2-deoxy-α,β-D-mannopyranose], for which, in series [1], the fluorescence emission band is listed as 435 nm and the “quantum yield Φf” value is listed as 0.21.

With `O=c1ccc2cc3c(cc2o1)-c1nnn(Cc2ccccc2)c1CCCC3` [Compound 3a], in series [3], the “absorption band λmax” value came out at 330 nm, the “quantum yield relative to Compound 1” value is reported as 20 fold, the “quantum yield Φf” value is 0.23 and the “extinction coefficient relative to Compound 1” value was about 2.5 fold. In addition, the “fluorescence emission λmax” value in series [3] was found to be 400 nm.

For the compound `O=c1ccc2cc3c(cc2o1)-c1c(nnn1Cc1ccccc1)CCCC3` [Compound 3b], in series [3], the “absorption band λmax” value is 330 nm, the “quantum yield relative to Compound 1” value is listed as 20 fold, the “quantum yield Φf” value was 0.22 and the “extinction coefficient relative to Compound 1” value is listed as about 2.5 fold. In addition, the “fluorescence emission λmax” value in series [3] is 400 nm.

Consider `CC1(C)C(/C=C/c2cc3ccc(-c4cn(Cc5ccccc5)nn4)cc3oc2=O)=[N+](CCCCS(=O)(=O)[O-])c2ccccc21` [Compound 18], for which, in series [6], the “absorption λmax” value was found to be 500 nm, the “fluorescence quantum yield Φf” value is 0.56, the “fluorescence λmax” value is on record as 520 nm and the “extinction coefficient ε” value is recorded as 32,000 M^−1 cm^−1.

On to `C#Cc1ccc2cc(/C=C/C3=[N+](CCCCS(=O)(=O)[O-])c4ccccc4C3(C)C)c(=O)oc2c1` [Compound C, (E)-7-ethynyl-3-[N-(4-sulfonatobutyl)-3,3-dimethyl-3H-indolium-2-yl]ethenyl-2H-chromen-2-one], for which, in series [6], the “absorption λmax” value worked out at 500 nm, the “fluorescence quantum yield Φf” value is listed as 0.017, the “fluorescence λmax” value turned out to be 515 nm and the “extinction coefficient ε” value is 8,600 M^−1 cm^−1.

Values taken from US9547009B2, “Benzocyclooctyne compounds and uses thereof” (Academia Sinica, priority 2012, dated 2017).
